Experimental data as given in US6992105B2, “Dipeptide derivatives” (Novartis AG, priority 2001, dated 2006).

Key:
[1] = test system: plasma ANF concentration (NEP inhibition); assay: effect on rat plasma ANF concentration; type: in vivo; conditions: 11.8 mg/kg p.o., rats infused with ANF 450 ng/kg/min i.v.
Description: The effect of the compounds of the invention on rat plasma ANF concentration can be determined as follows:
Male Sprague-Dawley rats (275–390 g) are anesthetized with ketamine (150 mg/kg)/acepromazine (10%) and instrumented with catheters in the femoral artery and vein to obtain blood samples and infuse ANF, respectively. The rats are tethered with a swivel system and are allowed to recover for 24 hours before being studied in the conscious, unrestrained state.
In the assay, plasma ANF levels are determined in the presence and absence of NEP inhibition. On the day of study, all rats are infused continuously with ANF at 450 ng/kg/min. i.v. for the entire 5 hours of the experiment. Sixty minutes after beginning the infusion, blood samples for baseline ANF measurements are obtained (time 0) and the rats are then randomly divided into groups treated with the test compound or vehicle. Additional blood samples are taken 30, 60, 120, 180 and 240 minutes after administration of the test compound.
Plasma ANF concentrations are determined by a specific radioimmunoassay. […] The supernatant is decanted and the pellets counted in a gamma counter. […] Plasma ANF levels are expressed as a percent of those measured in vehicle-treated animals which received ANF alone (450 ng/kg/min. i.v.)

[2] = test system: spontaneously hypertensive rat (SHR); assay: anti-hypertensive activity in the spontaneously hypertensive rat (SHR); type: in vivo; conditions: conscious SHR, once daily administration of 11.8 mg/kg p.o.
From the text: The anti-hypertensive activity can be determined, e.g., in the spontaneously hypertensive rat (SHR) and the DOCA-salt hypertensive rat, e.g., according to Bazil et al., J. Cardiovasc. Pharmacol., Vol. 22, pp. 897–905 (1993) and Trapani et al., J. Cardiovasc. Pharmacol., Vol. 14, pp. 419–424 (1989), respectively.

[3] = test system: angiotensin I induced pressor response (ACE); assay: inhibition of the angiotensin I induced pressor response in normotensive rats; type: in vivo, rat; conditions: conscious normotensive rats
Description: The in vivo test for i.v. administered compounds is performed with male, normotensive rats, which are conscious. A femoral artery and femoral vein are cannulated respectively for direct blood pressure measurement on i.v. administration of angiotensin I and i.v. or p.o. administration of a compound of this invention. After the basal blood pressure is stabilized, pressor responses to 3 or 4 challenges of 300 ng/kg angiotensin I i.v., at 15-minute intervals, are obtained. Such pressure responses are usually again obtained at 15, 30, 60 and 90 minutes, and then every hour up to 6 hours after i.v. or p.o. administration of the compound to be tested, and compared with the initial responses. Any observed decrease of said pressor response is an indication of ACE inhibition.

[4] = biological target: T1, NEP (EC 3.4.24.11) (Rattus norvegicus, UniProt P07861); assay: in vitro inhibition of NEP (GAAP substrate, rat kidney cortex membranes); type: biochemical; conditions: substrate glutaryl-Ala-Ala-Phe-2-naphthylamide (GAAP)
T1 construct: protein (rat kidney cortex membranes prepared by method of Maeda et al., 1983); from tissue; host or cells: rat kidney cortex membranes
T1 sequence (P07861 1-750): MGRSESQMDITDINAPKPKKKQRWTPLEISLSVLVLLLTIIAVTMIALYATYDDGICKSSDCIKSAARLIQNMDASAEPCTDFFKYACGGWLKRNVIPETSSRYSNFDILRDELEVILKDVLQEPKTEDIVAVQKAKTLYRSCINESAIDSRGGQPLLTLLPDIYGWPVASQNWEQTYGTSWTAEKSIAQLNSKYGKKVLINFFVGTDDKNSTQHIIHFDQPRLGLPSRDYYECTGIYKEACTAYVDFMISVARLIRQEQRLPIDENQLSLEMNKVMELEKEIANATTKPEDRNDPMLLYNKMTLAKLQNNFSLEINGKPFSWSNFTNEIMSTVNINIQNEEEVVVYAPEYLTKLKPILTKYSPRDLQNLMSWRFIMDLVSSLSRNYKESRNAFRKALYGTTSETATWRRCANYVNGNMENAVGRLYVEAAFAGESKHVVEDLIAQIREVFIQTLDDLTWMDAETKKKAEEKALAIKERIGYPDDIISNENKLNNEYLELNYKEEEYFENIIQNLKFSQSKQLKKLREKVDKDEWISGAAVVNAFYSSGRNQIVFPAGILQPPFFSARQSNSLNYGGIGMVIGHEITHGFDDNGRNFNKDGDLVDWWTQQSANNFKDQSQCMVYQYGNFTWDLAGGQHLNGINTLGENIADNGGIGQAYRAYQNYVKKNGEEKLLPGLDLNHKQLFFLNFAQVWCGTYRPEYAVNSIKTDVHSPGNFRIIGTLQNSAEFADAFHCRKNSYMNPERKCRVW
Description: The in vitro inhibition of NEP (EC 3.4.24.11) can be determined as follows:
NEP 3.4.24.11 activity is determined by the hydrolysis of the substrate glutaryl-Ala-Ala-Phe-2-naphthylamide (GAAP) using a modified procedure of Orlowski and Wilk (1981). The incubation mixture (total volume 125 μL) contains 4.2 μL of protein (rat kidney cortex membranes prepared by method of Maeda et al., 1983), 50 mM tris buffer, pH 7.4 at 25° C., 500 μM substrate (final concentration), and leucine aminopeptidase M (2.5 μg). The mixture is incubated for 10 minutes at 25° C., and 100 μL of fast garnet (250 μg fast garnet/mL of 10% Tween 20 in 1 M sodium acetate pH 4.2) is added. Enzyme activity is measure spectrophotometrically at […]. One unit of NEP 24.11 activity is defined as 1 nmol of 2-naphthylamine released per minute at 25° C. at pH 7.4. IC50 values are determined, i.e., the concentration of test compound required for 50% inhibition of the release of 2-naphthylamine.
NEP activity can also be determined using ANF as a substrate. ANF degrading activity is determined by measuring the disappearance of rat-ANF (r-ANF) using a 3-minute reverse phase-HPLC separation. An aliquot of the enzyme in 50 mM tris HCl buffer, pH 7.4, is pre-incubated at 37° C. for 2 minutes and the reaction is initiated by the addition of 4 nmol of r-ANF in a total volume of 50 μL. […]

[5] = biological target: angiotensin converting enzyme (ACE) (Homo sapiens, UniProt P12821); assay: in vitro inhibition of ACE (hippuryl-histidyl-leucine substrate); type: biochemical; conditions: ACE in vitro assay
Description: In vitro testing is most appropriate for the free carboxylic acids of the invention. The test compound is dissolved in dimethyl sulfoxide, ethanol or 0.25 M sodium bicarbonate solution, and the solution is diluted with buffer to the desired concentration.
The buffer for the ACE assay is 300 mM NaCl, 100 mM KH2PO4 (pH 8.3). The reaction is initiated by the addition of 100 μL of hippuryl-histidyl-leucine (2 mg/mL) to tubes containing enzyme and drug in a volume of 150 μL and tubes are incubated for 30 minutes at 37° C. The reaction is terminated by the addition of 0.75 mL 0.6 N NaOH. 100 μL of freshly prepared O-pthaldehyde solution (2 mg/mL in methanol) is added to the tubes, the contents are mixed and allowed to stand at room temperature. After 10 minutes, 100 μL of 6 N HCl is added. The tubes are centrifuged and the supernatant optical density is read at 360 nm. The results are plotted against drug concentration to determine the IC50, i.e., the drug concentration which gives half the activity of the control sample containing no drug.

angiotensin converting enzyme (ACE), sequence (P12821 30-1306, species assumed): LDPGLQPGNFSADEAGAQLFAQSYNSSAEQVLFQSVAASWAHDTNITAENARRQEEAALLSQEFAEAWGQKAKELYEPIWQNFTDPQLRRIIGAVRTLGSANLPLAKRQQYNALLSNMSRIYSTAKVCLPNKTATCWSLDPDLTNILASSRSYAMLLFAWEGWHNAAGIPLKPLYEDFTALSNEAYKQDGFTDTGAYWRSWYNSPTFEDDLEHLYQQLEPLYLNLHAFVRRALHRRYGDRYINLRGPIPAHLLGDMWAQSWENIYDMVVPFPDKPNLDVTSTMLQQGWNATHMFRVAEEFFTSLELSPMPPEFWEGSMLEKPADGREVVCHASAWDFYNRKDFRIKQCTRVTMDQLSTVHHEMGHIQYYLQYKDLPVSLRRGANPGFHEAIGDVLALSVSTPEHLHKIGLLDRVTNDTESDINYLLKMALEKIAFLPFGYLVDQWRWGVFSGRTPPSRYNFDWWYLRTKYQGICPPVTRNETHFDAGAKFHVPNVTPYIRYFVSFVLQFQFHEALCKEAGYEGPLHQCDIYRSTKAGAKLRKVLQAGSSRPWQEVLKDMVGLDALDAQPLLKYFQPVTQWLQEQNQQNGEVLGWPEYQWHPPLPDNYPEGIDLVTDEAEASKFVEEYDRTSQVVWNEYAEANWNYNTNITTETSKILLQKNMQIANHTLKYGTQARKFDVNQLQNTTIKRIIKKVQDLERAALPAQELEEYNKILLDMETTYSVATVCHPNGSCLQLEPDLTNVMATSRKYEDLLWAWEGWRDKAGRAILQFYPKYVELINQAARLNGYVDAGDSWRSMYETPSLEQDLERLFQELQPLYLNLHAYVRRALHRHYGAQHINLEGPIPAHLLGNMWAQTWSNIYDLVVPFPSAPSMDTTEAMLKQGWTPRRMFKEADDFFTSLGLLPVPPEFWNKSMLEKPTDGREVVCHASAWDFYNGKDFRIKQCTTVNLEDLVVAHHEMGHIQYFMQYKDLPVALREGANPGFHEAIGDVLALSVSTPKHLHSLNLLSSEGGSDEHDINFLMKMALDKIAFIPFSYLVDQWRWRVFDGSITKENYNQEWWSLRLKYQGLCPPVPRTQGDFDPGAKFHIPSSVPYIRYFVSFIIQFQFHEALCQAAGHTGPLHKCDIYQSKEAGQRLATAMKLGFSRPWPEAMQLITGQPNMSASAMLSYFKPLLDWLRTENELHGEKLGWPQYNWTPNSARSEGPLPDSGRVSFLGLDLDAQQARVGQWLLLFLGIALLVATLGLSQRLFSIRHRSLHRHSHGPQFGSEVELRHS

CCOC(=O)[C@H](COCc1ccccc1)NC(=O)C(C)(C)NC(=O)[C@@H](SC(C)=O)C(C)C [Example 1(a), N-[2-[(S)-2-Acetylthio-3-methylbutanoylamino]-2-methylpropionyl]-O-benzyl-L-serine ethyl ester]
increase of plasma ANF levels [1]: about 70% | effect on mean arterial pressure [2]: reduces mean arterial pressure | duration of inhibition of the angiotensin I induced pressor response ([3]; 11.8 mg/kg p.o.): 6 h

CC(C)[C@H](S)C(=O)NC(C)(C)C(=O)N[C@@H](COCc1ccccc1)C(=O)O [Example 6(a), N-[2-[(S)-2-Mercapto-3-methylbutanoylamino]-2-methylpropionyl]-O-benzyl-L-serine]
IC50 [4]: ~5 nM | IC50 [5]: ~20 nM | duration of inhibition of the angiotensin I induced pressor response ([3]; 10 mg/kg i.v.): 3 h
